This is an account of results in the METLIN SMRT retention time set (Domingo-Almenara et al. 2019).

This data set in a line: gradient 5% acetonitrile 3 min, to 50% in 2 min, to 85% in 15 min, held 3 min, 100 µL/min. To be noted: column: Zorbax Extend-C18 2.1 x 50 mm; eluents: water / acetonitrile, 0.1% formic acid. A digest of the protocol:
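Standards, all pure, were combined into mixtures of ~100 molecules and run at 100 μL/min on a Zorbax Extend-C18 column (2.1 × 50 mm, 1.8 μm) with water and acetonitrile, each containing 0.1% formic acid. A coupled quadrupole time-of-flight mass spectrometer operated in positive and negative ionization mode. Retention time values come from computationally picked adduct peaks, each inspected manually.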
As to `Cc1ccc(S(=O)(=O)N(C)c2ccccc2)s1`, the RP-LC retention time was found to be 901 s.
Consider `CN(CC1CCOC1)C(=O)c1cccc(Br)c1` (configuration not stated), for which the RP-LC retention time was found to be 718 s.
The value for `O=C(NCc1ccccc1F)c1nc(N2CCOCC2)c2ccccc2n1` was 678 s; that for `O=C(O)CCC(=O)Nc1cccc(C(=O)O)c1` was 555 s; that for `Cc1ccc(-c2noc(-c3cccc(S(=O)(=O)N4CCCCC4)c3)n2)cc1` was 1340 s.
`CC(C)NC(=O)N1CCCC(c2cccc(C(=O)NCc3ccccc3C(F)(F)F)c2)C1` (configuration not stated) registered an RP-LC retention time of 966 s.
In the case of `Cc1c(C(=O)N2CCCC(C)C2)sc2ncn(CC(=O)N3CC(C)CC(C)C3)c(=O)c12` (configuration not stated) it was 966 s; in that of `O=C(CN1C(=O)C2CCCCN2c2ccc(C(=O)N3CCOCC3)cc21)Nc1ccc(Cl)cc1` (configuration not stated), 832 s.
The value for `CNC(=O)N1CCCC(c2cccc(C(=O)N3CCN(c4cccc(Cl)c4)CC3)c2)C1` (configuration not stated) was 895 s.
The value for `C[C@H](NCc1ccc(OCc2cccc(F)c2)cc1)C(N)=O` was 708 s.
Take `COc1ccc2[nH]cc(CCN3CC(C(=O)Nc4ccc(C)cc4C)CC3=O)c2c1` (configuration not stated): the RP-LC retention time was 775 s.
`CCCn1cc(S(=O)(=O)NCc2ccccc2C)c2cccnc21`: the RP-LC retention time was 946 s.
On to `O=C(NCCn1nc(-c2cccs2)ccc1=O)c1ccc(-n2cccn2)nn1`, for which the RP-LC retention time came out at 685 s.
As to `CC(C)N1CCN(C(=O)C2CCc3sc(C(=O)N4CCCCCC4)cc3C2)CC1` (configuration not stated), the RP-LC retention time stood at 619 s.
For the molecule `CSc1ccc(Cl)c(C(=O)NCCc2cn(C)c3ncccc23)c1`, the RP-LC retention time amounted to 724 s.
`CC(C)c1cccc(NC(=O)c2cn(C)nc2S(=O)(=O)N2CCSCC2)c1`: the RP-LC retention time amounted to 1090 s.
In the case of `Cc1cccc(NS(=O)(=O)c2ccc(-c3nnc(C4CCC4)o3)o2)c1C` it was 949 s; in that of `CCOC(=O)c1cccc(NC(=O)Cn2c(=O)c(CCC(=O)NC)nc3ccccc32)c1`, 741 s.
`CCn1c(C(=O)NCCc2ccc(OC)c(OC)c2)cc2sc(Cl)cc21` had an RP-LC retention time of 1030 s.
`CCOC(=O)c1ccc(N2C=C(C#N)S(=O)(=O)c3ccc(Cl)cc32)cc1` had an RP-LC retention time of 1020 s.
In the case of `O=C(NC1CCCCC1)c1ccc(CN2CCN(Cc3ccc(F)cc3)C(=O)C2=O)cc1` it was 783 s; in that of `CC(=O)N(Cc1nn(C)c2c1CN(Cc1sccc1C)CC2)c1ccccc1`, 611 s.
Consider `O=C(Nc1ccc(C(=O)N2CCOCC2)cc1)c1cnn2c(C(F)F)cc(-c3ccccc3)nc12`, for which the RP-LC retention time was determined as 892 s.
`COc1ccc(Cn2nc3c(S(=O)(=O)N4CCN(c5ccc(F)cc5)CC4)cccn3c2=O)cc1` gave an RP-LC retention time of 905 s.
The molecule `CN(C)CCCNC(=O)C1CCN(c2nc3ccc(-c4cccs4)nc3s2)CC1` showed an RP-LC retention time of 647 s.
For the molecule `COCc1nnc(NS(=O)(=O)c2ccc([N+](=O)[O-])cc2)s1`, the RP-LC retention time was 702 s.
`CCCn1c(=O)c(C)nc2cc(-c3noc(-c4ccc(OCC)cc4)n3)ccc21` returned an RP-LC retention time of 1290 s.
For the molecule `O=C(NC1CCCCC1)c1nnc(-c2ccc(S(=O)(=O)N3CCOCC3)cc2)o1`, the RP-LC retention time was 854 s.
Turning to `O=C(NC1CC1)c1cc(=O)[nH]c2ccccc12`, the RP-LC retention time was 587 s.
In turn, `CCN1CCC(N(Cc2ccc3c(c2)OCO3)C(=O)Nc2cc(Cl)ccc2C(=O)OC)CC1` gave an RP-LC retention time of 774 s.
`CCn1c(=O)sc2cc(S(=O)(=O)N3CCC(C(=O)NCc4cccs4)CC3)ccc21` had an RP-LC retention time of 832 s.
Molecule `Cc1ccc(-c2nc(C)cc(SCC(=O)Nc3cc(C)ccc3C)n2)cc1` had an RP-LC retention time of 1210 s.
